Laboratory results published in patent US20260242419A1, “A CYCLIC PEPTIDE FOR TRAPPING INTERLEUKIN-1 BETA” (Merck Sharp & Dohme LLC, priority 2023, published 2026).
Starred links: 1 amine or outer side, 2 acyl side, 3 side chain; linkers in the order of their positions; H or OH if unused. Non-standard residues stand in square brackets, D forms with d. Residues, ends and D or L forms follow the SMILES beside them. Phe(4-(trans-4-COOH-cHex)) = N[C@@H](Cc1ccc([C@H]2CC[C@H](C(=O)O)CC2)cc1)C(=O)O; Phe(4-(cis-4-COOH-cHex)) = N[C@@H](Cc1ccc([C@H]2CC[C@@H](C(=O)O)CC2)cc1)C(=O)O; dPro(4R-(4-pyridylmethyl)) = O=C(O)[C@H]1C[C@@H](Cc2ccncc2)CN1; Ala(piperidin-4-yl) = O=C([C@H](CC1CCN([*:3])CC1)N[*:1])[*:2]; Trp(βS-Me,4-F) = C[C@@H](c1c[nH]c2cccc(F)c12)[C@H](N)C(=O)O; Bip(4'-COOH) = N[C@@H](Cc1ccc(-c2ccc(C(=O)O)cc2)cc1)C(=O)O; Ala(1-bicyclo(1.1.1)pentyl) = N[C@@H](CC12CC(C1)C2)C(=O)O; dPro(4R-Bzl(4-F)) = O=C(O)[C@H]1C[C@@H](Cc2ccc(F)cc2)CN1; Ala(pyrimidin-5-yl) = N[C@@H](Cc1cncnc1)C(=O)O; Phe(4-COOH) = N[C@@H](Cc1ccc(C(=O)O)cc1)C(=O)O; Ala(4-Pyridazinyl) = N[C@@H](Cc1ccnnc1)C(=O)O; Ala(2-pyrazinyl) = N[C@@H](Cc1cnccn1)C(=O)O; Pro(cis-4-F) = O=C(O)[C@@H]1C[C@H](F)CN1; X23 = O=C([C@H](Cc1ncccn1)N[*:1])[*:2]; Ala(4-THP) = N[C@@H](CC1CCOCC1)C(=O)O; 4Pal = N[C@@H](Cc1ccncc1)C(=O)O; d(αMeS) = C[C@@](N)(CO)C(=O)O; Dab = NCC[C@H](N)C(=O)O; Aib = CC(C)(N)C(=O)O

Target: T1, IL-1β (Homo sapiens, UniProt P01584)
T1 construct: purchased BioLegend 579404
Experiment: IL-6 assay in MRC5 cells: inhibition of IL-1β induced IL-6 secretion (AlphaLISA)
Type: cell-based
Settings: inhibition of IL-1β induced IL-6 secretion in MRC5 cells; read-out: MRC5 IC50
Outline: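 Compound was pre-incubated 1 h at ambient temperature with recombinant human IL-1β at 2λ EC80 before adding human lung fibroblast MRC5 cells (3000/well) in EMEM with 0.025% BSA. After overnight culture at 37 °C, 5% CO2, secreted IL-6 in conditioned medium was measured by AlphaLISA; IC50 from 4-parameter logistic fits.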

T1 sequence (P01584 117-269): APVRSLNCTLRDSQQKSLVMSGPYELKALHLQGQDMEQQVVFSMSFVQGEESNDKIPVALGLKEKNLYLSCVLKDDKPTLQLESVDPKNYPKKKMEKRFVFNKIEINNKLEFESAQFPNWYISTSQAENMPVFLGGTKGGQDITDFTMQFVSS

IC50 [nM]	SMILES
0.019	C[C@@H](c1c[nH]c2cccc(F)c12)[C@@H]1NC(=O)[C@@H]2C[C@H](F)CN2C(=O)CNC(=O)[C@H](Cc2ccc(C(=O)O)cc2)NC(=O)[C@H](Cc2ccncc2)NC(=O)[C@H](Cc2ccc(-c3ccc(C(=O)O)cc3)cc2)NC(=O)[C@H]2C[C@@H](Cc3ccncc3)CN2C(=O)CNC(=O)[C@H](CCN)NC(=O)[C@H](CCC(N)=O)NC(=O)[C@H](Cc2cncnc2)NC(=O)[C@@](C)(CO)NC(=O)[C@H](Cc2c[nH]c3ccccc23)NC(=O)[C@H](CO)NC(=O)C(C)(C)NC1=O [Example 111] (cyclo([Bip(4'-COOH)][4Pal][Phe(4-COOH)]G[Pro(cis-4-F)][Trp(βS-Me,4-F)][Aib]SW[d(αMeS)][Ala(pyrimidin-5-yl)]Q[Dab]G[dPro(4R-(4-pyridylmethyl))]))
0.018	C[C@@H](c1c[nH]c2cccc(F)c12)[C@@H]1NC(=O)[C@@H]2C[C@H](F)CN2C(=O)CNC(=O)[C@H](Cc2ccc(C(=O)O)cc2)NC(=O)[C@H](CC23CC(C2)C3)NC(=O)[C@H](Cc2ccc(-c3ccc(C(=O)O)cc3)cc2)NC(=O)[C@H]2C[C@@H](Cc3ccncc3)CN2C(=O)CNC(=O)[C@H](CCN)NC(=O)[C@H](CCC(N)=O)NC(=O)[C@H](Cc2cncnc2)NC(=O)[C@@](C)(CO)NC(=O)[C@H](Cc2c[nH]c3ccccc23)NC(=O)[C@H](CO)NC(=O)C(C)(C)NC1=O [Example 112] (cyclo([Bip(4'-COOH)][Ala(1-bicyclo(1.1.1)pentyl)][Phe(4-COOH)]G[Pro(cis-4-F)][Trp(βS-Me,4-F)][Aib]SW[d(αMeS)][Ala(pyrimidin-5-yl)]Q[Dab]G[dPro(4R-(4-pyridylmethyl))]))
0.018	C[C@@H](c1c[nH]c2cccc(F)c12)[C@@H]1NC(=O)[C@@H]2C[C@H](F)CN2C(=O)CNC(=O)[C@H](Cc2ccc(C(=O)O)cc2)NC(=O)[C@H](Cc2ccncc2)NC(=O)[C@H](Cc2ccc(-c3ccc(C(=O)O)cc3)cc2)NC(=O)[C@H]2C[C@@H](Cc3ccc(F)cc3)CN2C(=O)CNC(=O)[C@H](CCN)NC(=O)[C@H](CCC(N)=O)NC(=O)[C@H](Cc2ncccn2)NC(=O)C(C)(C)NC(=O)[C@H](Cc2c[nH]c3ccccc23)NC(=O)[C@H](CCC(=O)O)NC(=O)C(C)(C)NC1=O [Example 113] (cyclo([Bip(4'-COOH)][4Pal][Phe(4-COOH)]G[Pro(cis-4-F)][Trp(βS-Me,4-F)][Aib]EW[Aib][X23]Q[Dab]G[dPro(4R-Bzl(4-F))]))
0.035	C[C@@H](c1c[nH]c2cccc(F)c12)[C@@H]1NC(=O)[C@@H]2C[C@H](F)CN2C(=O)CNC(=O)[C@H](Cc2ccc(C(=O)O)cc2)NC(=O)[C@H](Cc2ccncc2)NC(=O)[C@H](Cc2ccc([C@H]3CC[C@H](C(=O)O)CC3)cc2)NC(=O)[C@H]2C[C@@H](Cc3ccc(F)cc3)CN2C(=O)CNC(=O)[C@H](CCN)NC(=O)[C@H](CCC(N)=O)NC(=O)[C@H](Cc2cncnc2)NC(=O)C(C)(C)NC(=O)[C@H](Cc2c[nH]c3ccccc23)NC(=O)[C@H](CCC(=O)O)NC(=O)C(C)(C)NC1=O [Example 114] (cyclo([Phe(4-(trans-4-COOH-cHex))][4Pal][Phe(4-COOH)]G[Pro(cis-4-F)][Trp(βS-Me,4-F)][Aib]EW[Aib][Ala(pyrimidin-5-yl)]Q[Dab]G[dPro(4R-Bzl(4-F))]))
0.023	C[C@@H](c1c[nH]c2cccc(F)c12)[C@@H]1NC(=O)[C@@H]2C[C@H](F)CN2C(=O)CNC(=O)[C@H](Cc2ccc(C(=O)O)cc2)NC(=O)[C@H](Cc2ccncc2)NC(=O)[C@H](Cc2ccc(-c3ccc(C(=O)O)cc3)cc2)NC(=O)[C@H]2C[C@@H](Cc3ccc(F)cc3)CN2C(=O)CNC(=O)[C@H](CCN)NC(=O)[C@H](CCC(N)=O)NC(=O)[C@H](Cc2ccnnc2)NC(=O)C(C)(C)NC(=O)[C@H](Cc2c[nH]c3ccccc23)NC(=O)[C@H](CCC(=O)O)NC(=O)C(C)(C)NC1=O [Example 115] (cyclo([Bip(4'-COOH)][4Pal][Phe(4-COOH)]G[Pro(cis-4-F)][Trp(βS-Me,4-F)][Aib]EW[Aib][Ala(4-Pyridazinyl)]Q[Dab]G[dPro(4R-Bzl(4-F))]))
0.04	C[C@@H](c1c[nH]c2cccc(F)c12)[C@@H]1NC(=O)[C@@H]2C[C@H](F)CN2C(=O)CNC(=O)[C@H](Cc2ccc(C(=O)O)cc2)NC(=O)[C@H](Cc2ccnnc2)NC(=O)[C@H](Cc2ccc(-c3ccc(C(=O)O)cc3)cc2)NC(=O)[C@H]2C[C@@H](Cc3ccc(F)cc3)CN2C(=O)CNC(=O)[C@H](CCN)NC(=O)[C@H](CCC(N)=O)NC(=O)[C@H](Cc2cncnc2)NC(=O)C(C)(C)NC(=O)[C@H](Cc2c[nH]c3ccccc23)NC(=O)[C@H](CCC(=O)O)NC(=O)C(C)(C)NC1=O [Example 116] (cyclo([Bip(4'-COOH)][Ala(4-Pyridazinyl)][Phe(4-COOH)]G[Pro(cis-4-F)][Trp(βS-Me,4-F)][Aib]EW[Aib][Ala(pyrimidin-5-yl)]Q[Dab]G[dPro(4R-Bzl(4-F))]))
0.027	C[C@@H](c1c[nH]c2cccc(F)c12)[C@@H]1NC(=O)[C@@H]2C[C@H](F)CN2C(=O)CNC(=O)[C@H](Cc2ccc(C(=O)O)cc2)NC(=O)[C@H](Cc2ccncc2)NC(=O)[C@H](Cc2ccc([C@H]3CC[C@@H](C(=O)O)CC3)cc2)NC(=O)[C@H]2C[C@@H](Cc3ccc(F)cc3)CN2C(=O)CNC(=O)[C@H](CCN)NC(=O)[C@H](CCC(N)=O)NC(=O)[C@H](Cc2cnccn2)NC(=O)C(C)(C)NC(=O)[C@H](Cc2c[nH]c3ccccc23)NC(=O)[C@H](CCC(=O)O)NC(=O)C(C)(C)NC1=O [Example 117] (cyclo([Phe(4-(cis-4-COOH-cHex))][4Pal][Phe(4-COOH)]G[Pro(cis-4-F)][Trp(βS-Me,4-F)][Aib]EW[Aib][Ala(2-pyrazinyl)]Q[Dab]G[dPro(4R-Bzl(4-F))]))
0.016	C[C@@H](c1c[nH]c2cccc(F)c12)[C@@H]1NC(=O)[C@@H]2C[C@H](F)CN2C(=O)CNC(=O)[C@H](Cc2ccc(C(=O)O)cc2)NC(=O)[C@H](Cc2ccncc2)NC(=O)[C@H](Cc2ccc(-c3ccc(C(=O)O)cc3)cc2)NC(=O)[C@H]2C[C@@H](Cc3ccc(F)cc3)CN2C(=O)CNC(=O)[C@H](CCN)NC(=O)[C@H](CCC(N)=O)NC(=O)[C@H](CC2CCOCC2)NC(=O)C(C)(C)NC(=O)[C@H](Cc2c[nH]c3ccccc23)NC(=O)[C@H](CCC(=O)O)NC(=O)C(C)(C)NC1=O [Example 118] (cyclo([Bip(4'-COOH)][4Pal][Phe(4-COOH)]G[Pro(cis-4-F)][Trp(βS-Me,4-F)][Aib]EW[Aib][Ala(4-THP)]Q[Dab]G[dPro(4R-Bzl(4-F))]))
0.016	C[C@@H](c1c[nH]c2cccc(F)c12)[C@@H]1NC(=O)[C@@H]2C[C@H](F)CN2C(=O)CNC(=O)[C@H](Cc2ccc(C(=O)O)cc2)NC(=O)[C@H](Cc2ccncc2)NC(=O)[C@H](Cc2ccc(-c3ccc(C(=O)O)cc3)cc2)NC(=O)[C@H]2C[C@@H](Cc3ccc(F)cc3)CN2C(=O)CNC(=O)[C@H](CCN)NC(=O)[C@H](CCC(N)=O)NC(=O)[C@H](CC2CCNCC2)NC(=O)C(C)(C)NC(=O)[C@H](Cc2c[nH]c3ccccc23)NC(=O)[C@H](CCC(=O)O)NC(=O)C(C)(C)NC1=O [Example 119] (cyclo([Bip(4'-COOH)][4Pal][Phe(4-COOH)]G[Pro(cis-4-F)][Trp(βS-Me,4-F)][Aib]EW[Aib][Ala(piperidin-4-yl)]Q[Dab]G[dPro(4R-Bzl(4-F))]))
